Patent US10564168B2, “Method for treating male infertility based on NOX5 protein levels in sperm” (priority 2013, dated 2020)

Legend:
human spermatozoa [1] = test: Superoxide assay, luminol-based Diogenes chemiluminescence, whole spermatozoa; type: cell-based; settings: for effect on ionomycin-induced superoxide chemiluminescence signal: 1 μM ionomycin; for effect on ionomycin-induced superoxide chemiluminescence signal / effect on H2O2-induced superoxide chemiluminescence signal: SOD 400 U/ml, DPI 10 μM, BAPTA 100 μM; for effect on H2O2-induced superoxide chemiluminescence signal: 100 μM H2O2, GKT136901 0.5 μM
Source text: (§1) Human semen samples were obtained from patient donors as a part of their clinical evaluation for fertility and reproductive health status. Portions of the samples not required for clinical analyses were de-identified and made available for the research protocols described. Under these conditions, the Institutional Review Board determined that the study is exempt from requirements for protocol approval and informed consent. Semen was collected by masturbation into sterile plastic containers and allowed to liquefy for at least 30 min before being processed. The samples were centrifuged (500 g, 15 min) to separate the seminal plasma from spermatozoa, and the pellet washed twice in phosphate-buffered normal saline pH 7 with 10 mM glucose (PBS-G). The spermatozoa were then counted in a hemocytometer chamber, resuspended in PBS-G at 10^9/ml, and used for superoxide assays. Sperm samples containing leukocytes detected by microscopic examination were excluded from the study. For selected experiments, motile spermatozoa were collected using the swim-up procedure (Vijayakumar et al. (1986) Arch. Androl. 17, 223-230; Parrish and Foote (1987) J. Androl. 8, 259-266). Briefly, the spermatozoa were sedimented by centrifugation (500 g, 15 min) and the tube was then incubated upright for 60 min at 37° C. Motile spermatozoa that progressed from the pellet into the supernatant (swim-up fraction) were collected by aspiration and counted.
Superoxide generation was measured using a luminol-based chemiluminescence assay (Diogenes reagent, National Diagnostics, Atlanta, Ga.). […] Spermatozoa were suspended at 10^9/ml in PBS-G. A 100 μl aliquot of the Diogenes reagent was mixed with 2×10^7 spermatozoa and incubated at 37° C. for 2-4 minutes. Superoxide generation was measured at baseline and after stimulation with ionomycin (1 μM), phorbol myristate acetate (PMA, 1 μg/ml), or H2O2 (100 μM and other concentrations as indicated). Chemiluminescence was measured every 30-60 sec for up to 10-15 min using a Clarity™ BioTek luminometer and an integration time of 5 sec.
Spermatozoa were pre-incubated for 5 min prior to the superoxide assay with 400 U/ml superoxide dismutase (SOD), 10 μM diphenylene iodonium (DPI), or 100 μM 1,2-Bis (2-aminophenoxy) ethane-N,N,N′,N′-tetraacetic acid (BAPTA). […] In some experiments, cells were pre-exposed to the NOX inhibitor 2-(2-chlorophenyl)-4-methyl-5-(pyridin-2-ylmethyl)-1H-pyrazolo[4,3-c]pyridine-3,6(2H,5H)-dione (GKT136901, 0.5 μM and other concentrations as indicated) for 10 min before exposure to either H2O2 or PMA.

human spermatozoa [2] = test: Swim-up procedure, sperm motility; type: cell-based; settings: GKT136901 0.5 μM or DPI 10 μM; 100 μM H2O2
Source text: as §1

[3] = test system: HV1 proton channels in K562 and K562/NOX5 cells; test: Perforated-patch clamp recording of proton currents; type: cell-based, human
Source text: Micropipettes were pulled in several stages using a Flaming-Brown automatic pipette puller (Sutter Instruments, San Rafael, Calif.) from 7052 glass (Garner Glass Co., Claremont, Calif., USA), coated with Sylgard 184 (Dow Corning Corp., Midland, Mich.), heat polished to a tip resistance between 2 and 10 MΩ. Electrical contact with the pipette solution was achieved using a chloride silver wire. The reference electrode was made from an Ag—AgCl wire connected to the bath through an agar bridge made with Ringer solution (160 mM NaCl, 4.5 mM KCl, 2 mM CaCl2, 1 mM MgCl2, 5 mM Hepes adjusted to pH 7.4). Current signal from the Axopatch 200B (Axon Instruments, Foster City, Calif.) was recorded on PC through a Lab View SCB-68 (National Instruments, Austin, Tex.). Further data analysis was made with Origin 7.5. Seals were formed in Ringer solution in the bath, and the potential was zeroed when the pipette was in contact with the cell. Most measurements were done between 21 and 25° C.
K562 cells were transferred on chips or pipette into the recording chamber. To leave internal signaling pathways undisturbed, the perforated patch configuration was used. Low access resistance was usually reached after 5-10 minutes. The perforated patch recording bath and pipette solution contained 50 mM NH^4+ in the form of (NH4)2SO4, 2 mM MgCl2, 5 mM Bes or Pipes buffer, and 1 mM EGTA adjusted to pH 7.0 with TMAOH. […]

NOX1 = target: T1, NOX1 (Homo sapiens, UniProt Q9Y5S8); settings: cited from earlier work
T1 sequence (Q9Y5S8 1-564): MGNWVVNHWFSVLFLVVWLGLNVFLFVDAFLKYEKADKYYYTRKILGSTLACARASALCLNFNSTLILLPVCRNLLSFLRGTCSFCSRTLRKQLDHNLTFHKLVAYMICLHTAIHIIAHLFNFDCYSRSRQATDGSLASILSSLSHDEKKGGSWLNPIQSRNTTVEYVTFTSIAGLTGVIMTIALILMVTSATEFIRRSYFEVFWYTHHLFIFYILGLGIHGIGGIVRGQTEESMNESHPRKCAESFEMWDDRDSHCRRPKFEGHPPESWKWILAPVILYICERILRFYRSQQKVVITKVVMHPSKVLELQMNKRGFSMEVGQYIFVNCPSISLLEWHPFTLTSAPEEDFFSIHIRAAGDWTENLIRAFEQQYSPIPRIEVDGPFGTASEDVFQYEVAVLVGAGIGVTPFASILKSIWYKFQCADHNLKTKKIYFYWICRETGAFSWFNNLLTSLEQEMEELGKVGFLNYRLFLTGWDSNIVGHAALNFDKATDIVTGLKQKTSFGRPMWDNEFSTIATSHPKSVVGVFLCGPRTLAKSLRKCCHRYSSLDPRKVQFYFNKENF
T1 sequence (P13498 1-195 partner): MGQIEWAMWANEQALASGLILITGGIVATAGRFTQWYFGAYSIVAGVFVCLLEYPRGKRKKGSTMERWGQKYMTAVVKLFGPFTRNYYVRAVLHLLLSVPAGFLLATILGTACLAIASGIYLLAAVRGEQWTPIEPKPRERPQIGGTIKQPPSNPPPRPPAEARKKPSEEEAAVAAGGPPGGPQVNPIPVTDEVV

NOX2 = target: T2, NOX2 (Homo sapiens, UniProt P04839); settings: NOX1 and NOX4 versus NOX2; cited from earlier work
T2 sequence (P04839 2-570 limits assumed): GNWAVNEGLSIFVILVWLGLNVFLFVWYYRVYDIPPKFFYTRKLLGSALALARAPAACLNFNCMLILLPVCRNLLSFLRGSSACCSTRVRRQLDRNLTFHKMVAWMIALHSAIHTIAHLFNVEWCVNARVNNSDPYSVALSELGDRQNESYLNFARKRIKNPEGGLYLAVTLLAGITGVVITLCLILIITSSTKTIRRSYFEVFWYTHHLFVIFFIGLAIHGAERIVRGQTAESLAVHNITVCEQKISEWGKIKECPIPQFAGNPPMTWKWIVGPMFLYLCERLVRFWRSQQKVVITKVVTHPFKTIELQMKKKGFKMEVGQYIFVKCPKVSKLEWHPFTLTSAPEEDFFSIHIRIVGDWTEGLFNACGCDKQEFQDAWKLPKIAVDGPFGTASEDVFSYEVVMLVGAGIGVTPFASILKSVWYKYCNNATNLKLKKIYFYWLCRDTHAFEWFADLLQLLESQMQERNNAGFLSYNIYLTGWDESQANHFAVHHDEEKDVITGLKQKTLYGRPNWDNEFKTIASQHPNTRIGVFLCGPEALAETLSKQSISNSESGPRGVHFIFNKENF
T2 sequence (P13498 1-195 partner): T1 sequence (P13498 1-195 partner)

NOX5 = target: T3, NOX5 (Homo sapiens, UniProt Q96PH1); settings: same conditions as Laleu et al.; GenKyoTex, personal communication; read-out: inhibitory constant for NOX5; cited from earlier work
T3 sequence (Q96PH1 1-765): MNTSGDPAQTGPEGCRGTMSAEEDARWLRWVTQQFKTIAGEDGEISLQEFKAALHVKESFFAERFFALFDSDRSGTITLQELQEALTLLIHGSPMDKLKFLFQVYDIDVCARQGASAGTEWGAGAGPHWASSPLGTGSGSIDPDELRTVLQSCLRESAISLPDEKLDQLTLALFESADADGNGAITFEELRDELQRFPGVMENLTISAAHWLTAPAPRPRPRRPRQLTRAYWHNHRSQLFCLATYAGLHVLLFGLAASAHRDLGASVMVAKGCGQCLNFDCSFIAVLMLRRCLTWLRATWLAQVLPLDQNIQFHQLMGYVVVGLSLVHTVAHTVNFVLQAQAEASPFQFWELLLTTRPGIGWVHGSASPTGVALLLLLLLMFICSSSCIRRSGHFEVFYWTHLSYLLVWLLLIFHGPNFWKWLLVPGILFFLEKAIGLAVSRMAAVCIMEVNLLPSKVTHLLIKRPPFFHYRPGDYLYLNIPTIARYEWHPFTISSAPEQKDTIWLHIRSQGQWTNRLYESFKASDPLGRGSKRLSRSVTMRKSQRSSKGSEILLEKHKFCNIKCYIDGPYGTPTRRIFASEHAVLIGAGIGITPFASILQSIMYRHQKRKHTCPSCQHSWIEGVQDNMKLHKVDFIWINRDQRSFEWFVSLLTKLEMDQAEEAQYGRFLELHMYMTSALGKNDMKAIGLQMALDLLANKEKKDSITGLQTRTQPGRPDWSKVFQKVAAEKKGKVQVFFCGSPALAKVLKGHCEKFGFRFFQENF

**Q.** What does the source list for `c1ccc2c(c1)[I+]c1ccccc1-2` [DPI, diphenylene iodonium]?
**A.** effect on ionomycin-induced superoxide chemiluminescence signal (human spermatozoa [1]): blocked; effect on H2O2-induced superoxide chemiluminescence signal (human spermatozoa [1]): nearly completely abrogated; effect of pre-incubation on the H2O2 effect on motility (human spermatozoa [2]): abrogated

**Q.** For `CN(C)CCCn1cc(C2=C(c3c[nH]c4ccccc34)C(=O)NC2=O)c2ccccc21` [GFX, GF109203X], which “effect on PMA response of proton channels” value ([3]; GFX 3 μM after 60 nM PMA) is on record?
**A.** Its value is “Most features of the PMA response of proton channels were reversed”.

**Q.** With `CCCCCCCCCCCCCC(=O)O[C@@H]1[C@@H](C)[C@@]2(O)[C@@H](C=C(CO)C[C@]3(O)C(=O)C(C)=C[C@@H]23)[C@@H]2C(C)(C)[C@]12OC(C)=O` [PMA, phorbol myristate acetate] as the compound, how does the “response of proton channels to stimulation” value ([3]; 60 nM PMA) read?
**A.** Its value is “enhanced gating mode”.

**Q.** Which “induction of superoxide production by spermatozoa” value (human spermatozoa [1]; ionomycin 1 μM, PMA 1 μg/ml or H2O2 100 μM, 10 min) does the source give for `C[C@H](CCC(=O)O)C[C@H](C)C[C@H](C)C(=O)/C=C(\O)[C@H](C)C[C@H](C)C/C=C/[C@@H](C)[C@@H](O)[C@@H](C)[C@@H](O)C[C@@H]1CC[C@@](C)([C@H]2CC[C@@](C)([C@@H](C)O)O2)O1` [ionomycin] here?
**A.** The value was “induced vigorous superoxide production”.

**Q.** With `Cc1c2c(=O)n(-c3ccccc3Cl)[nH]c2cc(=O)n1Cc1ccccn1` [GKT136901, 2-(2-chlorophenyl)-4-methyl-5-(pyridin-2-ylmethyl)-1H-pyrazolo[4,3-c]pyridine-3,6(2H,5H)-dione] as the compound, how does the “effect on PMA-stimulated superoxide production” value (human spermatozoa [1]; 1 μg/ml PMA) read?
**A.** Its value is “inhibited the stimulation of superoxide production by PMA in a concentration-dependent manner”.

**Q.** What about the “effect on H2O2-induced superoxide chemiluminescence signal” value (human spermatozoa [1]) of the same compound?
**A.** Its value is “nearly completely abrogated”.

**Q.** What about the “potency in inhibiting PMA-stimulated superoxide production, sperm cells as compared with neutrophils” value (human spermatozoa [1]; human spermatozoa versus human neutrophils) of the same compound?
**A.** Its value is ~10 fold.

**Q.** And the “effect of pre-incubation on the H2O2 effect on motility” value (human spermatozoa [2])?
**A.** Its value is “abrogated”.

**Q.** And the Ki (NOX1)?
**A.** The Ki was 160 ± 10 nM.

**Q.** And the “selectivity over NOX2” value (NOX2)?
**A.** The value was ~9 fold.

**Q.** And the Ki (NOX5)?
**A.** The Ki was 450 ± 10 nM.

**Q.** Which “effect on ionomycin-induced superoxide chemiluminescence signal” value (human spermatozoa [1]) does the source give for `O=C(O)CN(CC(=O)O)c1ccccc1OCCOc1ccccc1N(CC(=O)O)CC(=O)O` [BAPTA, 1,2-Bis (2-aminophenoxy) ethane-N,N,N′,N′-tetraacetic acid] here?
**A.** The value was “blocked”.

**Q.** What about the “effect on H2O2-induced superoxide chemiluminescence signal” value (human spermatozoa [1]) of the same compound?
**A.** Its value is “nearly completely abrogated”.
